In patent US20080311099A1, “Pyridoxal-5-Phosphate and Related Compounds in Combination With Therapeutic Cardiovascular Compounds for Treating Angina” (MEDICURE INTERNATIONAL INC., priority 2004, published 2008):

Legend:
[1] = system: isolated non-ischemic working rat heart; assay: Glucose oxidation rates in isolated non-ischemic working rat heart ([14C] glucose, 14CO2 production); conditions: 60 minutes aerobic perfusion, compound added about 5 minutes into the aerobic period; saline control 1580±183
Protocol: The goal was to determine if […] altered glucose oxidation rates or cardiac function in the isolated non-ischemic working rat heart model. This was achieved by subjecting rat hearts to 60 minutes of aerobic perfusion. […] was added about 5 minutes into the aerobic period and the effects of […] on glucose metabolism was determined during the aerobic period. […] Rat hearts were cannulated for isolated working heart perfusions as described previously (Lopaschuk et al., J Pharmacol Exp Ther. 1993 January;264(1):135-44). In brief, male Sprague-Dawley rats (0.3-0.35 kg) were anesthetized with pentobarbital sodium (60 mg/kg i. p.). The hearts were quickly excised, the aorta was cannulated, and a retrograde perfusion at 37° C. was initiated at a hydrostatic pressure of 60 mm Hg. Hearts were trimmed of excess tissue, and the pulmonary artery and the opening to the left atrium were then cannulated. […] Spontaneously beating hearts were used in all perfusions, heart rate and aortic pressure were measured with a Biopac Systems Inc. blood pressure transducer connected to the aortic outflow line. Cardiac output and aortic flow were measured with Transonic […] ultrasonic flow probes in the preload and afterload lines, respectively. Coronary flow was calculated as the difference between cardiac output and aortic flow. […]

[2] = Animal models for treatment of stress-induced angina (canine model of myocardial ischemia, canine model of exertional dysfunction, isolated perfused rat heart model of low flow ischemia); format: in vivo; conditions: compared with untreated or sham treated control animals
Source text: The canine model of myocardial ischemia, the canine model of exertional dysfunction, and the isolated perfused rate heart model of low flow ischemia, as previously and elsewhere described, is used to determine the effectiveness of P5P, pyridoxal, pyridoxine, and the compounds synthesized in Examples 1-24, to determine effectiveness of these compounds in treatment of angina.
The animal model experiments of Example 26 are repeated, this time with the combination treatment groups as elucidated in Examples 28, 29 and 30.

[3] = water, alcohol, and ether; cited from earlier work
[4] = Treatment of stress-induced angina in patients (P5P, pyridoxine, derivatives; alone and in combination therapies); format: in vivo, human
Protocol: Patients with a history of exercise induced angina are treated with P5P either before or after the onset of angina. Several measures are used to test the effectiveness of P5P for the treatment of angina including the time to onset of angina, exercise duration, time to 1 mm ST depression, and patient pain evaluation.
The experiment of Example 25 is repeated, this time testing combination therapies.
The Experiments of Example 28 are repeated, this time using pyridoxine instead of P5P.

[5] = patients with a history of exercise induced angina, treated before or after the onset of angina

O=C(O)C(Cl)Cl [DCA, dichloroacetic acid, reference compound]
glucose oxidation rates [1]: 2422±140

Cc1ncc(CO)c(CO)c1O [pyridoxine, 2-methyl-3-hydroxy-4,5-di(hydroxymethyl)pyridine]
symptoms and levels of angina [2]: significantly lower symptoms and levels of angina

Cc1ncc(CO)c(C=O)c1O [pyridoxal]
symptoms and levels of angina [2]: significantly lower symptoms and levels of angina

Cc1ncc(COP(=O)(O)O)c(C=O)c1O [Example P5P, 3-hydroxy-2-methyl-5-[(phosphonooxy)methyl]-4-pyridine-carboxaldehyde]
solubility [3]: essentially insoluble in water, alcohol, and ether | glucose oxidation rates [1]: 2253±230 | exercise duration [4, 5]: increased | onset to angina (time to onset of angina) [4, 5]: diminished | patient pain (patient pain evaluation) [4, 5]: diminished | time to 1 mm ST depression [4, 5]: diminished | angina outcomes, treatment alone ([4]; patients, P5P treatment alone (Example 28)): improves angina outcomes | symptoms and levels of angina [2]: significantly lower symptoms and levels of angina
